Test results published in patent US20190083563A1 (priority 2014, published 2019).
In brackets after ≈: the same amount, converted by molar mass.

Tests used:
[1] = system: influenza A virus H3N2; assay: microbe, parasite or virus in culture; type: cell-based
[2] = system: influenza virus H1N1; type: cell-based, influenza A virus
[3] = system: influenza B virus; assay: microbe, parasite or virus in culture; type: cell-based
[4] = system: influenza virus H1N1; assay: Investigation on cell binding of influenza virus (virus and sample mixed, 4° C., MTT cell viability); type: cell-based, influenza A virus
[5] = in vitro; conditions: dog
[6] = system: influenza A virus H5N1; assay: microbe, parasite or virus in culture; type: cell-based
[7] = system: influenza A virus H1N1; assay: microbe, parasite or virus in culture; type: cell-based

CCOC(=O)C1=C[C@@H](OC(CC)CC)[C@H](NC(C)=O)[C@@H](N)C1 [Tamiflu]
SI ([1]; H3N2, CC50 value divided by the EC50 value): 317 | EC50 ([1]; Influenza A virus, H3N2, MDCK cells, post-treatment, 48 hours): 3.5 µg/mL (≈ 11.2 µM) | CPE of cells, virus preventive effect [2]: all the cells treated with Tamiflu were dead | observing the cells using a microscope, virus preventive effect [2]: infected cell state | SI ([3]; CC50 value divided by the EC50 value): 81 | EC50 ([3]; MDCK cells, post-treatment, 48 hours): 13.7 µg/mL (≈ 43.9 µM) | antiviral effect in virus binding test [4]: no antiviral effect | CC50 [5]: 1110 µg/mL (≈ 3560 µM) | SI ([6]; H5N1, CC50 value divided by the EC50 value): 740 | EC50 ([6]; Influenza A virus, H5N1, MDCK, 48 h): 1.5 µg/mL (≈ 4.8 µM) | observing the cells by a microscope, post-treatment [7]: many cells were infected and dead | SI ([7]; H1N1, CC50 value divided by the EC50 value): 317 | EC50 ([7]; Influenza A virus, H1N1, MDCK cells, post-treatment, 48 hours): 3.5 µg/mL (≈ 11.2 µM)
